Assay results published in patent US20230398130A1, “METHODS AND COMPOSITIONS FOR DIFFERENTIATING STEM CELLS” (Massachusetts Institute of Technology, priority 2020, published 2023).

Experiments:
ISC-enriched organoids [1] = test: Primary screen, 384-well 2.5-D organoid differentiation (ENR+CD, 6 days, Target Selective Inhibitor Library, vs whole-plate median): ATP (CellTiter-Glo 3D, CTG); conditions: for Dose.FC.CTG: FC vs plate median; for Dose.FC.CTG (log 2 fold change): vs plate median; for SSMD.CTG: strictly standardized mean difference
ISC-enriched organoids [2] = test: Primary screen, 384-well 2.5-D organoid differentiation (ENR+CD, 6 days): basal lysozyme secretion (LYZ.NS); format: cell-based, murine; conditions: for Dose.FC.LYZ.NS: FC vs plate median; for Dose.FC.LYZ.NS (log 2 fold change): vs plate median; for SSMD.LYZ.NS: strictly standardized mean difference
From the text: (§1) High-throughput screening.

ISC-enriched organoids [3] = test: Primary screen, 384-well 2.5-D organoid differentiation (ENR+CD, 6 days): carbachol-induced lysozyme secretion (LYZ.S); format: cell-based, murine; conditions: for Dose.FC.LYZ.S: FC vs plate median; for Dose.FC.LYZ.S (log 2 fold change): vs plate median; for Z.LYZ.S: standard z score; for SSMD.LYZ.S: strictly standardized mean difference
From the text: as §1

[4] = Dose 0.08 uM, standard z score of FC
[5] = Dose 0.40 uM, standard z score of FC
[6] = Dose 2.00 uM, standard z score of FC
[7] = Dose 10.00 uM, standard z score of FC
[8] = Dose 0.08 uM, primary screen, standard z score
[9] = Dose 0.40 uM, primary screen, standard z score
[10] = Dose 2.00 uM, primary screen, standard z score
[11] = Dose 10.00 uM, primary screen, standard z score
[12] = primary screen, 1st of the 4 dose lines of the treatment (dose not given)
[13] = primary screen, 2nd of the 4 dose lines of the treatment (dose not given)
[14] = primary screen, 3rd of the 4 dose lines of the treatment (dose not given)
[15] = primary screen, 4th of the 4 dose lines of the treatment (dose not given)

## OC[C@H]1O[C@@H](c2ccc(Cl)c(Cc3ccc(O[C@H]4CCOC4)cc3)c2)[C@H](O)[C@@H](O)[C@@H]1O [Empagliflozin (BI 10773)]
ISC-enriched organoids [1]; Dose 0.08 uM, ENR+CD, 6 days
  Dose.FC.CTG: −0.296 log 2 fold change
ISC-enriched organoids [1]; [4]
  Z.CTG: −0.707
ISC-enriched organoids [1]; Dose 0.40 uM, ENR+CD, 6 days
  Dose.FC.CTG: −0.075 log 2 fold change
ISC-enriched organoids [1]; [5]
  Z.CTG: −0.178
ISC-enriched organoids [1]; Dose 2.00 uM, ENR+CD, 6 days
  Dose.FC.CTG: −0.192 log 2 fold change
ISC-enriched organoids [1]; [6]
  Z.CTG: −0.458
ISC-enriched organoids [1]; Dose 10.00 uM, ENR+CD, 6 days
  Dose.FC.CTG: −0.134 log 2 fold change
ISC-enriched organoids [1]; [7]
  Z.CTG: −0.320
ISC-enriched organoids [2]; Dose 0.08 uM, ENR+CD, 6 days
  Dose.FC.LYZ.NS: −0.006 log 2 fold change
ISC-enriched organoids [2]; [4]
  Z.LYZ.NS: −0.052
ISC-enriched organoids [2]; Dose 0.40 uM, ENR+CD, 6 days
  Dose.FC.LYZ.NS: −0.034 log 2 fold change
ISC-enriched organoids [2]; [5]
  Z.LYZ.NS: −0.294
ISC-enriched organoids [2]; Dose 2.00 uM, ENR+CD, 6 days
  Dose.FC.LYZ.NS: −0.009 log 2 fold change
ISC-enriched organoids [2]; [6]
  Z.LYZ.NS: −0.081
ISC-enriched organoids [2]; Dose 10.00 uM, ENR+CD, 6 days
  Dose.FC.LYZ.NS: 0.017 log 2 fold change
ISC-enriched organoids [2]; [7]
  Z.LYZ.NS: 0.144
ISC-enriched organoids [3]; Dose 0.08 uM, ENR+CD, 6 days
  Dose.FC.LYZ.S: −0.051 log 2 fold change
ISC-enriched organoids [3]; Dose 0.40 uM, ENR+CD, 6 days
  Dose.FC.LYZ.S: −0.055 log 2 fold change
ISC-enriched organoids [3]; Dose 2.00 uM, ENR+CD, 6 days
  Dose.FC.LYZ.S: −0.103 log 2 fold change
ISC-enriched organoids [3]; Dose 10.00 uM, ENR+CD, 6 days
  Dose.FC.LYZ.S: −0.022 log 2 fold change

## Cc1ccc(S(=O)(=O)Cc2nc(-c3ccc(C(=O)NCc4cccnc4)cc3)oc2C)cc1 [STF-118804]
ISC-enriched organoids [1]; Dose 0.08 uM, primary screen
  Z.CTG (standard z score): −0.360
  Dose.FC.CTG (log 2 fold change): −0.151
ISC-enriched organoids [1]; Dose 0.40 uM, primary screen
  Z.CTG (standard z score): −3.346
  Dose.FC.CTG (log 2 fold change): −1.401
ISC-enriched organoids [1]; Dose 2.00 uM, primary screen
  Z.CTG (standard z score): −2.189
  Dose.FC.CTG (log 2 fold change): −0.916
ISC-enriched organoids [1]; Dose 10.00 uM, primary screen
  Z.CTG (standard z score): −3.195
  Dose.FC.CTG (log 2 fold change): −1.338
ISC-enriched organoids [2]; Dose 0.08 uM, primary screen
  Z.LYZ.NS (standard z score): −1.349
  Dose.FC.LYZ.NS (log 2 fold change): −0.155
ISC-enriched organoids [2]; Dose 0.40 uM, primary screen
  Z.LYZ.NS (standard z score): −1.824
  Dose.FC.LYZ.NS (log 2 fold change): −0.210
ISC-enriched organoids [2]; Dose 2.00 uM, primary screen
  Z.LYZ.NS (standard z score): −1.502
  Dose.FC.LYZ.NS (log 2 fold change): −0.172
ISC-enriched organoids [2]; Dose 10.00 uM, primary screen
  Z.LYZ.NS (standard z score): −1.541
  Dose.FC.LYZ.NS (log 2 fold change): −0.177
ISC-enriched organoids [3]; Dose 0.08 uM, primary screen
  Dose.FC.LYZ.S (log 2 fold change): −0.257
ISC-enriched organoids [3]; Dose 0.40 uM, primary screen
  Dose.FC.LYZ.S (log 2 fold change): −0.212
ISC-enriched organoids [3]; Dose 2.00 uM, primary screen
  Dose.FC.LYZ.S (log 2 fold change): −0.271
ISC-enriched organoids [3]; Dose 10.00 uM, primary screen
  Dose.FC.LYZ.S (log 2 fold change): −0.300

## CNC(=O)[C@H](Cc1c[nH]c2ccccc12)NC(=O)[C@@H](CC(=O)NO)CC(C)C [Ilomastat (GM6001, Galardin)]
ISC-enriched organoids [1]; Dose 0.08 uM, primary screen
  Dose.FC.CTG: 0.197 log 2 fold change
ISC-enriched organoids [1]; [8]
  Z.CTG: 0.470
ISC-enriched organoids [1]; Dose 0.40 uM, primary screen
  Dose.FC.CTG: 0.163 log 2 fold change
ISC-enriched organoids [1]; [9]
  Z.CTG: 0.389
ISC-enriched organoids [1]; Dose 2.00 uM, primary screen
  Dose.FC.CTG: 0.091 log 2 fold change
ISC-enriched organoids [1]; [10]
  Z.CTG: 0.216
ISC-enriched organoids [1]; Dose 10.00 uM, primary screen
  Dose.FC.CTG: −0.110 log 2 fold change
ISC-enriched organoids [1]; [11]
  Z.CTG: −0.264
ISC-enriched organoids [1]; [12]
  SSMD.CTG: 0.482
ISC-enriched organoids [1]; [13]
  SSMD.CTG: 0.406
ISC-enriched organoids [1]; [14]
  SSMD.CTG: 0.321
ISC-enriched organoids [1]; [15]
  SSMD.CTG: −0.348
ISC-enriched organoids [2]; Dose 0.08 uM, primary screen
  Dose.FC.LYZ.NS: 0.055 log 2 fold change
ISC-enriched organoids [2]; [8]
  Z.LYZ.NS: 0.482
ISC-enriched organoids [2]; Dose 0.40 uM, primary screen
  Dose.FC.LYZ.NS: −0.011 log 2 fold change
ISC-enriched organoids [2]; [9]
  Z.LYZ.NS: −0.092
ISC-enriched organoids [2]; Dose 2.00 uM, primary screen
  Dose.FC.LYZ.NS: 0.007 log 2 fold change
ISC-enriched organoids [2]; [10]
  Z.LYZ.NS: 0.064
ISC-enriched organoids [2]; Dose 10.00 uM, primary screen
  Dose.FC.LYZ.NS: −0.106 log 2 fold change
ISC-enriched organoids [2]; [11]
  Z.LYZ.NS: −0.919
ISC-enriched organoids [2]; [12]
  SSMD.LYZ.NS: 0.305
ISC-enriched organoids [2]; [13]
  SSMD.LYZ.NS: −0.056
ISC-enriched organoids [2]; [14]
  SSMD.LYZ.NS: 0.066
ISC-enriched organoids [2]; [15]
  SSMD.LYZ.NS: −0.635
ISC-enriched organoids [3]; Dose 0.08 uM, primary screen
  Dose.FC.LYZ.S: 0.214 log 2 fold change
ISC-enriched organoids [3]; Dose 0.40 uM, primary screen
  Dose.FC.LYZ.S: 0.117 log 2 fold change
ISC-enriched organoids [3]; Dose 2.00 uM, primary screen
  Dose.FC.LYZ.S: 0.024 log 2 fold change
ISC-enriched organoids [3]; Dose 10.00 uM, primary screen
  Dose.FC.LYZ.S: −0.078 log 2 fold change
ISC-enriched organoids [3]; [12]
  Z.LYZ.S: 1.385
  SSMD.LYZ.S: 1.175
ISC-enriched organoids [3]; [13]
  Z.LYZ.S: 0.754
  SSMD.LYZ.S: 0.580
ISC-enriched organoids [3]; [14]
  Z.LYZ.S: 0.153
  SSMD.LYZ.S: 0.164
ISC-enriched organoids [3]; [15]
  Z.LYZ.S: −0.502
  SSMD.LYZ.S: −0.329
